Experiment [1] relates to M2 muscarinic receptors in the heart. Particulars: Tucek et al. 1993; cited from earlier work.
For another experiment, the system named is muscarinic receptors. Conditions: reported; cited from earlier work.
Another experiment deals with T1, m1 muscarinic receptors (Homo sapiens, UniProt P11229).
T1 construct: expressed in transfected cells; host or cells: CHO (Chinese Hamster Ovary) cells, membranes
T1 sequence (P11229 1-460): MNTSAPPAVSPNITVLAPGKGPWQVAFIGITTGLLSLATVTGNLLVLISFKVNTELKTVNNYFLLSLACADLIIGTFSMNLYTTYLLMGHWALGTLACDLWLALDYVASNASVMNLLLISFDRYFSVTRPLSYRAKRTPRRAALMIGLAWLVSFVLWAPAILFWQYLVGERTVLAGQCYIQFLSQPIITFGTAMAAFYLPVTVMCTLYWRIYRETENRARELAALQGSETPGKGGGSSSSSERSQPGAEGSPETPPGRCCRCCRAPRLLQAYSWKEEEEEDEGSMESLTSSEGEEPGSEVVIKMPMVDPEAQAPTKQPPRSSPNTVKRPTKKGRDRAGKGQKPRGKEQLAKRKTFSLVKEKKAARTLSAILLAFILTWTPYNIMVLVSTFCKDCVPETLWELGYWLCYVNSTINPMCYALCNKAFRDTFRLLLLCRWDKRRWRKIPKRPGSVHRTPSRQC
Description: Effect on ACh binding: ACh inhibition of 3H-NMS binding (indirect assay) on CHO cell membranes. Conditions: tested at 3 μg/ml; 0.15 nM 3H-NMS, 30 μM ACh, 0.2 mM GTP, pH 7.4, 30° C., two hours. The source says: The compounds of the present invention may be assayed for allosteric activity at m1 muscarinic receptors as described below, although the assays we describe are not necessarily exhaustive, and other assays may be employed, as desired, to establish allosterism.
A suitable cell line is CHO (Chinese Hamster Ovary), which are readily engineered to express only one receptor sub-type.
To obtain the large amount of cell membranes required, plates of 530 cm^2 culture area were used. CHO cells which express m1, m2, m3 and m4 receptors were grown separately in MEM alpha medium containing 10% newborn calf serum and antibiotics. When cells reached confluence, they were washed twice with 10 ml of 20 mM HEPES containing 10 mM EDTA (pH 7.4), scraped into the same buffer and homogenized using a Polytron (trademark) homogenizer (setting 5-6 for 5 sec×2). Membrane pellets were obtained by centrifugation (40000×g, 10 min, 4° C.) and resuspended in 20 mM HEPES-0.1 mM EDTA (pH 7.4). Centrifugation and resuspension were repeated twice to wash the cell membranes. After measurement of membrane protein, the membranes (1 or 2 mg protein/ml) were stored at -70° C.
While the direct assay measures ACh (=acetylcholine) binding only to the high affinity state, the indirect assay measures effects only at the low affinity state. This is achieved by including 0.2 mM GTP in the assay. In this assay a fixed concentration of ^3 H-NMS (roughly the Kd value) is incubated in the absence and presence of a fixed concentration of ACh (at about the IC50 value) and the effects of three concentrations of test agent are measured, again in the absence and presence of ACh.
Calculating the effects on ^3 H-NMS binding alone is as follows: binding in the presence of the agent is expressed as a percentage of binding in its absence and, if the effect is inhibitory, an IC50 is estimated graphically. The assay also contains a single high concentration of ^3 H-NMS (4 nM, about 30 times the Kd) which provides an estimate of Bmax (i.e. maximum binding).
Expressing the effect on cold ACh binding will be explained with reference to FIGS. 1a, b and c. These figures show theoretical data and the effects of the transformations described below. In FIGS. 1a and 1b ^3 H-NMS and cold ACh are present at their Kd concentrations; in FIG. 1a the agent has a negative allosteric effect on ^3 H-NMS, while in FIG. 1b it has a positive allosteric effect on ^3 H-NMS. The left panels show the amount of ^3 H-NMS specifically bound in the assay. If the affinity of ACh is reduced by the test agent, as shown in the top panels of FIGS. 1a and 1b, the inhibition by ACh will decrease, but the counts recovered will also depend on the effect of the agent on ^3 H-NMS binding alone. To calculate the effect on ACh binding the inhibitory effect of ACh is first calculated as a percent of its own control in the absence of ACh. Next it is assumed that fractional inhibition is the same as tractional occupancy, and inhibition in the presence of agent is expressed as a percentage of inhibition in the absence of agent. The effects of these transformations are shown in the centre panels. Expressing inhibition by ACh in the presence of agent as a percentage of inhibition in the absence of agent allows the effect of the agent on cold ACh binding to be seen on the same scale as the effect on ^3 H-NMS and ^3 H-ACh binding and is generally preferred.
If the concentration of ^3 H-NMS used in the indirect assay is around the Kd value or less, the transformation described above provides a qualitative and semi-quantitative measure of the agent's effect. If a higher concentration of ^3 H-NMS is used, or if the agent has a positive allosteric effect on ^3 H-NMS, then the results of this transformation may be misleading. […] It is assumed that ACh binds to a single affinity state i.e. that its inhibition curve has a slope of 1, and so an IC50 is calculated from the percentage inhibition of control binding. […]

Another experiment has as its system heart receptors. Conditions: cited from earlier work.

In the case of `C=CC[N@@+]12CC[C@@]34c5ccccc5N5/C=C6/[C@H]7C[C@H]8[C@@]9(CC[N@@+]8(CC=C)C/C7=C/CO)c7ccccc7N(/C=C(/[C@@H](C[C@@H]31)/C(=C\CO)C2)[C@H]54)[C@@H]69` [alcuronium], the “effect on affinity of M2 muscarinic receptors for NMS” value in experiment [1] is “allosterically increases the affinity of M2 muscarinic receptors in the heart for NMS”. Take batrachotoxin: the “allosteric effects on antagonist binding” value with muscarinic receptors is reported as “negative allosteric effects on antagonist binding”. In the case of `CSc1c(Cc2nnn[nH]2)cc(C)c2c3ccccc3n(Cc3ccc(Cl)c(Cl)c3)c12` [Example 152, 5-[9-(3,4-Dichlorobenzyl)-4-methyl-1-methylthiocarbazol-2-yl]methyl-1H-tetrazole], the “Effect on ACh Binding” value on m1 muscarinic receptors amounted to 2.02.

On to `CSc1c(Cc2nnn[nH]2)ccc2c3ccccc3n(Cc3ccccc3)c12` [Example 77, 5-[(9-Benzyl-1-methylthiocarbazol)-2-ylmethyl]-1H-tetrazole], for which, at m1 muscarinic receptors, the “Effect on ACh Binding” value was 3.69.

For `COc1ccc2c(c1)c1c(C)cc(CC(=O)O)c(SC)c1n2Cc1ccccc1` [Example 182, (9-Benzyl-6-methoxy-4-methyl-1-methylthiocarbazol-2-yl)acetic Acid], the “Effect on ACh Binding” value at m1 muscarinic receptors was 2.57. The same measure, in the same setting: as for `Cc1cc(CC(=O)O)c(SCc2ccccc2)c2c1c1ccccc1n2C` [Example 206, (1-Benzylthio-4,9-dimethylcarbazol-2-yl)acetic Acid], the figure is 2.13; as for `CSc1c(CC(=O)O)cc(C)c2c3ccccc3n(Cc3ccc(F)cc3)c12` [Example 143, [9-(4-Fluorobenzyl)-4-methyl-1-methylthiocarbazol-2-yl]acetic Acid], 5.36. Take `Cc1cc(CC(=O)O)c(OCc2ccccc2)c2c1c1ccccc1n2Cc1ccccc1` [Example 134, (9-Benzyl-1-benzyloxy-4-methylcarbazol-2-yl)acetic Acid]: the “Effect on ACh Binding” value at m1 muscarinic receptors stood at 3.40. For the compound `O=C(O)CC1CCc2[nH]c3ccccc3c2C1` (stereo not shown) [Example 61, (1,2,3,4-Tetrahydrocarbazol-3-yl)acetic acid], the “Effect on ACh Binding” value at m1 muscarinic receptors turned out to be 2.11. On the same count and under the same terms, with `CCCc1cc(CC(=O)O)c(SC)c2c1c1ccccc1n2Cc1ccc([N+](=O)[O-])cc1` [Example 176, [1-Methylthio-9-(4-nitrobenzyl)-4-propylcarbazol-2-yl]acetic Acid] the figure was 2.08; with `CSc1c(C(Cc2ccccc2)C(=O)O)ccc2c3ccccc3n(Cc3ccccc3)c12` (stereo not shown) [Example 17, 2-(9-Benzyl-1-methylthiocarbazol-2-yl)-3-phenylpropionic acid], 2.50.

Consider `CC[N+](CC)(CC)CCOc1cccc(OCC[N+](CC)(CC)CC)c1OCC[N+](CC)(CC)CC` [gallamine], for which the “action on heart receptors” value in the experiment with heart receptors (Riker and Wescoe 1951) is “negative action on heart receptors”. In addition, the “competitive antagonism for acetylcholine” value in the experiment on heart receptors (subsequently established) is on record as “not a competitive antagonist for acetylcholine”.

Take `CSc1c(CC(=O)O)ccc2c3ccccc3n(Cc3ccc(Cl)cc3)c12` [Example 7, [9-(4-Chlorobenzyl)-1-methylthiocarbazol-2-yl]acetic acid]: the “Effect on ACh Binding” value on m1 muscarinic receptors came to 3.55. Turning to `Cc1cc(CC(=O)O)c(S(C)(=O)=O)c2c1c1ccccc1n2Cc1ccccc1` [Example 202, (9-Benzyl-1-methylsulfonyl-4-methylcarbazol-2-yl)acetic Acid], the “Effect on ACh Binding” value on m1 muscarinic receptors is 2.66. As for `CSc1c(CC(=O)O)cc(C(F)(F)F)c2c3ccccc3n(Cc3ccccc3)c12` [Example 231, (9-Benzyl-1-methylthio-4-trifluoromethyl carbazol-2-yl)acetic Acid], the “Effect on ACh Binding” value on m1 muscarinic receptors is given as 3.78. Still for that read-out and setting: with `CSc1c(OCC(=O)O)ccc2c3ccccc3n(Cc3ccccc3)c12` [Example 46, (9-Benzyl-1-methylthiocarbazol-2-yloxy)acetic acid] the figure was 2.21.

As for `c1ccc(Cn2c3c(c4ccccc42)CCC(Cc2nnn[nH]2)S3)cc1` (stereo not shown) [Example 84, 5-(9-Benzyl-2,3,4,9-tetrahydrothiopyrano[2,3-b]indol-2-yl)methyltetrazole], at m1 muscarinic receptors, the “Effect on ACh Binding” value stood at 3.30. For `COc1cc2c3cc1Oc1cc(ccc1O)C[C@@H]1c4c(cc(OC)c(O)c4Oc4ccc(cc4)C[C@@H]3N(C)CC2)CC[N+]1(C)C` [Tubocurarine], the “allosteric effects on antagonist binding” value in the experiment on muscarinic receptors is listed as “negative allosteric effects on antagonist binding”.

The values above are taken from patent US5877199A, “Heterocyclic compounds, their preparation and their therapeutic use” (priority 1994, dated 1999).
